Test results taken from patent US10494332B2, “Protein tyrosine phosphatases or SHP2 inhibitors and uses thereof” (Indiana University Research and Technology Corporation, priority 2015, dated 2019).
pIC50: −log10 of the molar value. Where “and” joins values, the source holds several entries; their conditions need not be identical. Equal values may be shown once. Read-outs that look alike come from different tables or passages of the source.

What was measured:
LMWPTP = target: T1, LMWPTP (Homo sapiens, UniProt P24666); test: PTP inhibition assay (pNPP); format: biochemical
T1 sequence (P24666 1-158): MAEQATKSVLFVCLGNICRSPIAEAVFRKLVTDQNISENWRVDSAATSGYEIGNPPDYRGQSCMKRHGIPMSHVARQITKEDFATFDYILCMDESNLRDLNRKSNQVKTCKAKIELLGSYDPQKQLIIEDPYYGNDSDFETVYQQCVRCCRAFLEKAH

TbPTP1 = TbPTP1 (Trypanosoma brucei brucei, UniProt Q38AT7); test: PTP inhibition assay (pNPP); format: biochemical; details: pH 7.0, 25° C.
PTP1B = target: T2, PTP1B (Homo sapiens, UniProt P18031); test: PTP inhibition assay (pNPP); format: biochemical; details: pNPP at Km, pH 7.0, 25° C.
T2 sequence (P18031 1-435): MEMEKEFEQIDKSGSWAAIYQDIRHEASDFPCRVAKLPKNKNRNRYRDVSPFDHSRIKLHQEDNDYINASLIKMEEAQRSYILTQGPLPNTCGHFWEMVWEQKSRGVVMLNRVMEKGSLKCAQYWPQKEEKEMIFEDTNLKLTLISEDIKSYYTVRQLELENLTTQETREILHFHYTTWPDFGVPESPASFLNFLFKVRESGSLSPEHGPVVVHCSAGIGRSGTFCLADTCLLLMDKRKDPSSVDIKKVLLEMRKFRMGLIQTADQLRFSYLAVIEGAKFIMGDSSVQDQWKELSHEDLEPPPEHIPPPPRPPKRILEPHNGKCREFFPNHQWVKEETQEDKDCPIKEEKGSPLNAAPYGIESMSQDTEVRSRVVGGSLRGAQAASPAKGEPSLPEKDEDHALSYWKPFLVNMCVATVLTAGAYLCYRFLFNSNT

PEST = target: T3, PEST (Homo sapiens, UniProt Q05209); test: PTP inhibition assay (pNPP); format: biochemical
T3 sequence (Q05209 1-780): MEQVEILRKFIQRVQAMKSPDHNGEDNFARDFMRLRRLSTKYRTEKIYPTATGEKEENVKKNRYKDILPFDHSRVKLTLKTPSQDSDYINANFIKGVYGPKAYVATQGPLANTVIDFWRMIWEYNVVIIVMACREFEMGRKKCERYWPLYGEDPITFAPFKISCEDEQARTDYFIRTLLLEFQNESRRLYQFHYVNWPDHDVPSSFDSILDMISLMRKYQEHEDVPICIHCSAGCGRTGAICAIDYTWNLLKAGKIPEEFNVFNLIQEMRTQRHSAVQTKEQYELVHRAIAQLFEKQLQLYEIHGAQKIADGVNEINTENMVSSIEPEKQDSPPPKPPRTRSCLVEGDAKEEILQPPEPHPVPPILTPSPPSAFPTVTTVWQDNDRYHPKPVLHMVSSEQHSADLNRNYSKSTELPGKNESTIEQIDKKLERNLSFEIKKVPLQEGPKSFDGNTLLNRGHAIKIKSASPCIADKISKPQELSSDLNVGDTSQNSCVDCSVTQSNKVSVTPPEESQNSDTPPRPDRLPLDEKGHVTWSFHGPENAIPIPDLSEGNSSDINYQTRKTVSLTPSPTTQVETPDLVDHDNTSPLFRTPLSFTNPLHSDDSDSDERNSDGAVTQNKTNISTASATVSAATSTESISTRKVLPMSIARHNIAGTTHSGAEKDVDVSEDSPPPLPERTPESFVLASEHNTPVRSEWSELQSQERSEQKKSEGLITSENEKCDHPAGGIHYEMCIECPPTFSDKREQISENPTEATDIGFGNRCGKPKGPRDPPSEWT

SHP2 = target: T4, SHP2 (Homo sapiens, UniProt Q06124); test: SHP2 phosphatase inhibition assay (pNPP); format: biochemical; details: pNPP at Km, pH 7.0, 25° C.; read-out: IC50 SHP2
T4 sequence (Q06124 224-528): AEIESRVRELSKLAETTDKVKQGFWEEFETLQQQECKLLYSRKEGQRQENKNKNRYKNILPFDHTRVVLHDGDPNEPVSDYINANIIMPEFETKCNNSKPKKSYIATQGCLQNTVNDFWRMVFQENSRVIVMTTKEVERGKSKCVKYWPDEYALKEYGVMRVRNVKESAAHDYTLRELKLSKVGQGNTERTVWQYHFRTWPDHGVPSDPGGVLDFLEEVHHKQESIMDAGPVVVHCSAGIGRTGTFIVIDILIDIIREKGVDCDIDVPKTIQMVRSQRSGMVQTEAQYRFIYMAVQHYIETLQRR

LAR = LAR (Homo sapiens, UniProt P10586); test: PTP inhibition assay (pNPP); format: biochemical
PTPα = PTPα (Homo sapiens, UniProt P18433); test: PTP inhibition assay (pNPP); format: biochemical
PTPβ = PTPβ (Homo sapiens, UniProt P23467); test: PTP inhibition assay (pNPP); format: biochemical
MKP3 = target: T5, MKP3 (Homo sapiens, UniProt Q16828); test: PTP inhibition assay (pNPP); format: biochemical
T5 sequence (Q16828 1-381): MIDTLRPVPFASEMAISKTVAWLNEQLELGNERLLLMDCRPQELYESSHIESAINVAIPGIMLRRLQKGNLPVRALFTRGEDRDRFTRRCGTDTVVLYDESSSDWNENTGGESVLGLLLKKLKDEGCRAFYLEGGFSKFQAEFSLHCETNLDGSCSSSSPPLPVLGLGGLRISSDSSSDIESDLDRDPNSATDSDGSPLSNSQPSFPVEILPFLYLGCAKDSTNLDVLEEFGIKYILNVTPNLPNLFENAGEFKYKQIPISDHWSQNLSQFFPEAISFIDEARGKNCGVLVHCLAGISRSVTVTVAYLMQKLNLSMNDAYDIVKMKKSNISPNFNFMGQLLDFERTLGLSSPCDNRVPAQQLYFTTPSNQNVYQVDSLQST

VHX = target: T6, VHX (Homo sapiens, UniProt Q9NRW4); test: PTP inhibition assay (pNPP); format: biochemical
T6 sequence (Q9NRW4 1-184): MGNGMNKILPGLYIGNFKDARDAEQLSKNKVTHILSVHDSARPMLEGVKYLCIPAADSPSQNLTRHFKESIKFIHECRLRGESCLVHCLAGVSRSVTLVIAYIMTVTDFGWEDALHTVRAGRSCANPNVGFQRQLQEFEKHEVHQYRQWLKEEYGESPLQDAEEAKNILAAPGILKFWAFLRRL

PTPμ = PTPμ (Homo sapiens, UniProt P28827); test: PTP inhibition assay (pNPP)
[1] = pNPP at Km, read-out: IC50 TbPTP1
[2] = pNPP at Km, pH 7.0, 25° C., read-out: IC50 PEST
[3] = pNPP at Km, pH 7.0, 25° C.; read-out: IC50 VHX
[4] = IC50 VHX, pNPP at Km, pH 7.0, 25° C.
[5] = pNPP at Km, pH 7.0, 25° C.; read-out: IC50 VHX (second VHX line of Table 15)

Sequence of PTPμ (P28827 21-1452): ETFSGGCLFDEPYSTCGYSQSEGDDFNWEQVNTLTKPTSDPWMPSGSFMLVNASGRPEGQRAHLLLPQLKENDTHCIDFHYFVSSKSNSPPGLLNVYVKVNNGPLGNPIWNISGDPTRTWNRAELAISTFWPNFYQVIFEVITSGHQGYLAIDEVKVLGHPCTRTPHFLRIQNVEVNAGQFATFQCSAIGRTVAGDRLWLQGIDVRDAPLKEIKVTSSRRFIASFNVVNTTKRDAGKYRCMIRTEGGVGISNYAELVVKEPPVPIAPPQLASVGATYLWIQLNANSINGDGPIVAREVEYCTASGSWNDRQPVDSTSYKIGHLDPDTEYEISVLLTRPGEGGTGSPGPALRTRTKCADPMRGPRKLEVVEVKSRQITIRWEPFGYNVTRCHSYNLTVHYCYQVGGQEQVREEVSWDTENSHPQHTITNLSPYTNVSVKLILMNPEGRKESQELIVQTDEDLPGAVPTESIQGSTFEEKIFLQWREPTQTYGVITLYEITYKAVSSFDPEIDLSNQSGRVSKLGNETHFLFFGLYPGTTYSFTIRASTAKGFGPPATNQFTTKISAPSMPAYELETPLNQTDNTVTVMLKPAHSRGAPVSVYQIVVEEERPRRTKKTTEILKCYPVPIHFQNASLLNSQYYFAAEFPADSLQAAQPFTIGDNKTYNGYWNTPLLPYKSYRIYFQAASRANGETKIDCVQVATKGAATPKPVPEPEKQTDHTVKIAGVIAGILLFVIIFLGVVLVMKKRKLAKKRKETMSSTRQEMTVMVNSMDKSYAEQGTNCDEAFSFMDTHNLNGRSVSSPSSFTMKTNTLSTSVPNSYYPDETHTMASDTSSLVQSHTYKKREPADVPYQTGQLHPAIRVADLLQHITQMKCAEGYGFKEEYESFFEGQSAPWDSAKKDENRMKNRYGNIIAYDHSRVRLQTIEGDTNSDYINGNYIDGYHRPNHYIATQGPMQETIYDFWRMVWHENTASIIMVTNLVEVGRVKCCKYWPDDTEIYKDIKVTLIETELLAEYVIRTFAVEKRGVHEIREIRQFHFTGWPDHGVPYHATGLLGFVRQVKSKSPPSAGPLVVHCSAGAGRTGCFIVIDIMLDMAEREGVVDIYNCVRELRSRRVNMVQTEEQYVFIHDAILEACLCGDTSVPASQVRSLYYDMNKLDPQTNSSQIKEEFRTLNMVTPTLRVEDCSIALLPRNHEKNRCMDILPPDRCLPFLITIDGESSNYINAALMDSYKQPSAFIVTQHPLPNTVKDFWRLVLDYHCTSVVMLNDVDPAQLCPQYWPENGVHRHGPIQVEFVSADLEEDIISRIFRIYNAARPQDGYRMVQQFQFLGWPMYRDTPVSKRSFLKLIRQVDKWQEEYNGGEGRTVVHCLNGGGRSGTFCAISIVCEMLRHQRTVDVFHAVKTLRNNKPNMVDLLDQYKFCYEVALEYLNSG
Sequence of LAR (P10586 30-1907): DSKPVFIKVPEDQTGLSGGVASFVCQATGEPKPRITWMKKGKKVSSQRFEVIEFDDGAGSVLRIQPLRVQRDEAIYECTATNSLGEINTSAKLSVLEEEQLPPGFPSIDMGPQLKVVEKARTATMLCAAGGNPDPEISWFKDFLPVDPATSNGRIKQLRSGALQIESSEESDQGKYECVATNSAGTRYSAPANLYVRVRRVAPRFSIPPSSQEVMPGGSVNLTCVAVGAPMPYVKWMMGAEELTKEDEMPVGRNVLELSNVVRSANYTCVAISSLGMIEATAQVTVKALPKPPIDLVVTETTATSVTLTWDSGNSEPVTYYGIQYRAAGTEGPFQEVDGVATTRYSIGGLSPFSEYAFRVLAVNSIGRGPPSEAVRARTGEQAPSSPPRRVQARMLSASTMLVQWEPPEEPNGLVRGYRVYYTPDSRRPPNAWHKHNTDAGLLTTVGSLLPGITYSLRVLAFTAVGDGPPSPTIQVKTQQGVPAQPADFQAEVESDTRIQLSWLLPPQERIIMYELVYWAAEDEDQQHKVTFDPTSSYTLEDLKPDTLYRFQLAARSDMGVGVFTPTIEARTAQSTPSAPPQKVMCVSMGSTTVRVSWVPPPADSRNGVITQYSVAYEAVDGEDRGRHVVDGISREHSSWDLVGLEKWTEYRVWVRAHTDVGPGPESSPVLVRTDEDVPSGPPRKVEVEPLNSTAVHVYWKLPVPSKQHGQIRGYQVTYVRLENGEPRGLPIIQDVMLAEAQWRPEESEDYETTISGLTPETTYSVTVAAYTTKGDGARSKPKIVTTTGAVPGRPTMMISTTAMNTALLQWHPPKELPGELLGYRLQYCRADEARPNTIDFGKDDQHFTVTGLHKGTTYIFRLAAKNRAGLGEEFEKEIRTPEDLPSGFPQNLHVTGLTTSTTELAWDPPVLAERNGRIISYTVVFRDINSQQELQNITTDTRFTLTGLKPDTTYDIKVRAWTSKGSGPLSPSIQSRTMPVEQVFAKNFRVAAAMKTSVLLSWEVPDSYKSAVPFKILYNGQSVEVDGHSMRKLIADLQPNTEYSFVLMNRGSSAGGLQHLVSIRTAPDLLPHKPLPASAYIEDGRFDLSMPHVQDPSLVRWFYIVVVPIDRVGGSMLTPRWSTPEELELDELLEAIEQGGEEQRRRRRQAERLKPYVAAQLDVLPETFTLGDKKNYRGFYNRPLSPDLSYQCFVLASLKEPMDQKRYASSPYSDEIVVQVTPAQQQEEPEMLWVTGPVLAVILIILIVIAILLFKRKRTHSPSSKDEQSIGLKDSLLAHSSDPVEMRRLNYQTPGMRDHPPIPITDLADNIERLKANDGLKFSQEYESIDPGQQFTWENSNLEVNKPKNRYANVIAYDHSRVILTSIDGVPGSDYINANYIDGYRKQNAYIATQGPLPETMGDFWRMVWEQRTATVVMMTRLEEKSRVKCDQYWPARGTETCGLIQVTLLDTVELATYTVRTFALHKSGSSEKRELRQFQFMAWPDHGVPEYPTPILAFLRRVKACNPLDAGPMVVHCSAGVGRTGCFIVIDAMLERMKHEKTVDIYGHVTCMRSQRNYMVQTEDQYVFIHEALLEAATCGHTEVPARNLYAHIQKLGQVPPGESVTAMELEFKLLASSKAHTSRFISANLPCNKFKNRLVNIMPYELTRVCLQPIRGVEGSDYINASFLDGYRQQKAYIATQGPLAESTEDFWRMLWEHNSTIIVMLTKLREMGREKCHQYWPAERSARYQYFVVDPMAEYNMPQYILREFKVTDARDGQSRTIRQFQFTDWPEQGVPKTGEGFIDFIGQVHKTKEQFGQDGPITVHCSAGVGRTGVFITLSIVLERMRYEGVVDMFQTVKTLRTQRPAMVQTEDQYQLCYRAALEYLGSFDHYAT
Sequence of PTPα (P18433 20-802): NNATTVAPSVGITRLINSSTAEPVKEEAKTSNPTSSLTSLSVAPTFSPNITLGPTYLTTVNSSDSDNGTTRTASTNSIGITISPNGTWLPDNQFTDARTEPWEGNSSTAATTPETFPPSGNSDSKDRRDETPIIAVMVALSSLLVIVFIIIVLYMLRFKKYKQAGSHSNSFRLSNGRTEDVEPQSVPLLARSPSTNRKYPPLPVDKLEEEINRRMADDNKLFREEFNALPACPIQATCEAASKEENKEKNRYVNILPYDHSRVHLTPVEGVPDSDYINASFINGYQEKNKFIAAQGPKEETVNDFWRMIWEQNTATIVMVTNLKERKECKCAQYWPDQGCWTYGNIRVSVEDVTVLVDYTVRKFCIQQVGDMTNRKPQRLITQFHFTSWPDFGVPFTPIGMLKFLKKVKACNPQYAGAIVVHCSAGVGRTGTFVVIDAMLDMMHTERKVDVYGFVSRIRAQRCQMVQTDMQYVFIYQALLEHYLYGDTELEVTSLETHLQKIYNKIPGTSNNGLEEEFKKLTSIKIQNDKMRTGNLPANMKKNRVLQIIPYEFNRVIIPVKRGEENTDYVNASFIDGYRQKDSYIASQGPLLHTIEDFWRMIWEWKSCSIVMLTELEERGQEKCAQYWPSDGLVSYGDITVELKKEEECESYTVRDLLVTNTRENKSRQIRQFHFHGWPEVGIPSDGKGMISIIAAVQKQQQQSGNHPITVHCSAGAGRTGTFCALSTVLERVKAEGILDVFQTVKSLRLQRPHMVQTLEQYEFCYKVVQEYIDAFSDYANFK
Sequence of TbPTP1 (Q38AT7 entry or part of it): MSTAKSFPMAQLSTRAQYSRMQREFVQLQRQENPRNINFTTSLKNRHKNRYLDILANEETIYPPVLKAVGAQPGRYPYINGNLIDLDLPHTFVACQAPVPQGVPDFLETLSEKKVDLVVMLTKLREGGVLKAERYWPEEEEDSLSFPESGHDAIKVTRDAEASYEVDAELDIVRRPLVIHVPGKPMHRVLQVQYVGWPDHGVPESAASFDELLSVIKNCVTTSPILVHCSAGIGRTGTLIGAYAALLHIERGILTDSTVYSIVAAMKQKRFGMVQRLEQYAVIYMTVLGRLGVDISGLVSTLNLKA

| SMILES | pIC50 (LMWPTP; pNPP at Km, pH 7.0, 25° C.) | pIC50 (TbPTP1; [1]) | pIC50 (PTP1B) | pIC50 (PEST; [2]) | pIC50 (SHP2) | pIC50 (LAR) | pIC50 (PTPα) | pIC50 (PTPβ) | pIC50 (MKP3) | pIC50 (VHX; [3]) | pIC50 (PTPμ) | pIC50 (PEST; IC50 PEST) | pIC50 (VHX; [4]) | pIC50 (LMWPTP; pH 7) | pIC50 (VHX; [5]) | pIC50 (TbPTP1; IC50 TbPTP1, pNPP at Km) | pIC50 (PEST; pH 7, read-out: IC50 PEST) | pIC50 (VHX; IC50 VHX (second VHX line of Table 15), pNPP at Km, pH 7.0, 25° C.) | pIC50 (VHX; read-out: IC50 VHX; pNPP at Km, pH 7.0, 25° C.) |
| --- | --- | --- | --- | --- | --- | --- | --- | --- | --- | --- | --- | --- | --- | --- | --- | --- | --- | --- | --- |
| O=C(C(c1ccccc1)S(=O)(=O)O)N1CCC(c2ccc(Cl)c(Cl)c2)CC1 (stereo not drawn) [Compound L319N47] | 3.94 | 4.42 | 3.84 | 4.38 | 4.12 | < 3.70 | < 3.70 | 4.30 | < 3.70 | 3.82 | < 3.70 |  |  |  |  |  |  |  |  |
| O=C(Nc1ccc(-c2ccccc2)cc1)C(c1ccccc1)S(=O)(=O)O (stereo not drawn) [Compound L319N08] | 4.54 | < 4.00 | < 3.70 |  | < 4.00 |  |  |  |  |  |  | 4.22 | < 3.70 |  |  |  |  |  |  |
| O=C(Nc1ccc2nc(C(F)(F)F)[nH]c2c1)C(c1ccccc1)S(=O)(=O)O (stereo not drawn) [Compound L319M54] | 5.10 and 5.30 | < 3.70 | < 3.70 | < 3.70 | < 3.70 | < 3.70 | < 3.70 | < 3.70 | < 3.70 | < 3.70 | < 3.70 |  |  | 5.25 | < 3.70 |  |  |  |  |
| O=C(CS(=O)(=O)O)Nc1nc2ccc([N+](=O)[O-])cc2s1 [Compound L335N15-07] | 6.52 | < 4.00 | < 4.00 | < 4.00 | < 4.00 | < 4.00 | < 4.00 | < 4.00 | < 4.00 | < 4.00 | < 4.00 |  |  |  | < 4.00 |  |  |  |  |
| O=C(Nc1nc2ccccc2s1)C(c1ccccc1)S(=O)(=O)O (stereo not drawn) [Compound L319N15] | 5.13 and 5.07 | < 3.70 | < 3.70 | 4.36 | < 3.70 and < 4.00 and 3.80 | < 3.70 | < 3.70 | < 3.70 | < 3.70 | < 3.70 | < 3.70 |  |  | 5.15 | < 3.70 |  |  |  |  |
| O=C(Nc1ccc(OCc2ccccc2)c(Cl)c1)C(c1ccccc1)S(=O)(=O)O (stereo not drawn) [Compound L319M50] |  | < 4.00 | < 3.70 | 4.16 | < 3.70 |  |  |  |  | < 4.00 |  |  |  | 4.92 |  |  |  |  |  |
| Cc1c(Br)cc(NC(=O)C(c2ccccc2)S(=O)(=O)O)cc1Br (stereo not drawn) [Compound L319M34] | 5.35 |  |  |  | < 4.00 |  |  |  |  |  |  | 4.37 | 4.04 | 5.28 |  | < 3.70 | 4.14 | < 3.70 | 4.04 |
| O=C(NCc1ccc(NC(=O)C(c2ccccc2)S(=O)(=O)O)cc1)c1ccccc1-c1ccc(C(F)(F)F)cc1 (stereo not drawn) [Compound L319-05-A64] | 4.54 | 4.03 | 3.74 | 3.80 | 4.16 |  |  |  |  |  |  |  |  |  |  |  |  |  |  |
